Laboratory results: patent US20040170685A1, “Bioactive stents and methods for use thereof” (MediVas, LLC, priority 2003, published 2004)

Tested on: human aortic smooth muscle cells (SMC)
Test: Adhesion and proliferation of smooth muscle cells on gelatin coated culture plates, microscopic observation
Assay type: cell-based
Conditions: bioagent 100? m
From the text: This Example illustrates the effect of different concentrations of bioactive agents on adhesion and proliferation of epithelial cells (EC) and smooth muscle cells (SMC) on gelatin coated surfaces.
Human Coronary artery endothelial cells (EC) plated on gelatin coated culture plates were co-cultured with EC special media containing one of the bioactive agents shown in Table 1 below in the various concentrations shown.
Twenty four hours later the cells were observed microscopically, stained with trypan blue and counted. The results of the microscopic observation of cell morphology and confluency of culturing the EC in the presence of the Bioagents tested are summarized in Table 2 below. The effect of the various bioagents on EC adhesion and proliferation is shown graphically in FIG. 2.
Effect of different concentrations of the bioagents listed above in Table 1 was also tested using human aortic smooth muscle cells (SMC) under similar conditions as described for EC. The results of the bioagents on adhesion and proliferation of SMC plated on gelatin coated culture plates are summarized in Table 3 below and shown graphically in FIG. 3.

CCCCCCCCCCCCC/C=C/[C@@H](O)[C@@H](N)COP(=O)(O)O [S1P, Sphingosine 1-Phosphate]
Microscopic observation for the SMC morphology and Confluency: 100% cells died
